Laboratory results as given in PubChem BioAssay AID330 (DTP/NCI, 2004).
Values joined by “and” are separate entries in the source; they are usually repeats but may differ in a detail not shown here. Equal values may be shown once. Inconclusive results and toxic doses are left out. How the source made its calls: active means survival T/C of 150% or more; inactive means T/C below 125% in these data.

System: P388 leukemia ip, CD2F1 mice, survival T/C
Experiment: NCI In Vivo Anticancer Drug Screen. Data for tumor model P388 Leukemia (intraperitoneal) in CD2F1 (CDF1) mice
Settings: endpoint: median survival time, higher = longer survival
Outline: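 Mice carrying the transplanted tumor received test compound or vehicle. Survival was recorded in each group, and the value is the treated-group measurement divided by that of the vehicle-treated control group.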

[1] = dose: 50.0 mg/kg/injection, schedule: Q01DX005 (ip), vehicle: Klucel (hydroxypropylcellulose) (HPC)
[2] = dose: 100.0 mg/kg/injection, schedule: Q01DX005 (ip), vehicle: Klucel (hydroxypropylcellulose) (HPC)
[3] = dose: 200.0 mg/kg/injection, schedule: Q01DX005 (ip), vehicle: Klucel (hydroxypropylcellulose) (HPC)
[4] = dose: 100.0 mg/kg/injection, schedule: Q04DX002 (ip), vehicle: saline with Tween-80
[5] = dose: 200.0 mg/kg/injection, schedule: Q04DX002 (ip), vehicle: saline with Tween-80
[6] = dose: 60.0 mg/kg/injection, schedule: Q01DX005 (ip), vehicle: saline with Tween-80
[7] = dose: 120.0 mg/kg/injection, schedule: Q01DX005 (ip), vehicle: saline with Tween-80
[8] = dose: 240.0 mg/kg/injection, schedule: Q01DX005 (ip), vehicle: saline with Tween-80
[9] = dose: 50.0 mg/kg/injection, schedule: Q01DX009 (ip), vehicle: saline with Tween-80
[10] = dose: 100.0 mg/kg/injection, schedule: Q01DX009 (ip), vehicle: saline with Tween-80
[11] = dose: 25.0 mg/kg/injection, schedule: Q01DX009 (ip), vehicle: saline with Tween-80

Measured: T/C

Cc1ccc(NC(=O)Nc2nc3ccccc3s2)cc1NC(=O)Nc1nc2ccccc2s1
inactive: dose: 50.0 mg/kg/injection, schedule: Q01DX009 (ip), vehicle: Klucel (hydroxypropylcellulose) (HPC) 110 % of control | dose: 100.0 mg/kg/injection, schedule: Q01DX009 (ip), vehicle: Klucel (hydroxypropylcellulose) (HPC) 102 % of control | dose: 200.0 mg/kg/injection, schedule: Q01DX009 (ip), vehicle: Klucel (hydroxypropylcellulose) (HPC) 109 % of control

CC(/C=N/Nc1ccccc1)=N\N=c1/scc(-c2ccc(Br)cc2)n1-c1ccc(Cl)cc1
inactive: dose: 12.5 mg/kg/injection, schedule: Q01DX001 (ip), vehicle: saline with Tween-80 98 % of control | dose: 25.0 mg/kg/injection, schedule: Q01DX001 (ip), vehicle: saline with Tween-80 89 % of control | dose: 50.0 mg/kg/injection, schedule: Q01DX001 (ip), vehicle: saline with Tween-80 86 % of control

CC(=O)OCC1OC(Nc2ncc(-c3ccc(C)cc3)s2)C(OC(C)=O)C(OC(C)=O)C1OC(C)=O (stereo unspecified)
inactive: dose: 50.0 mg/kg/injection, schedule: Q01DX005 (ip), vehicle: saline with Tween-80 98 % of control | dose: 100.0 mg/kg/injection, schedule: Q01DX005 (ip), vehicle: saline with Tween-80 98 % of control | dose: 200.0 mg/kg/injection, schedule: Q01DX005 (ip), vehicle: saline with Tween-80 92 % of control

O=C(CSC(c1ccccc1)(c1ccccc1)c1ccccc1)c1ccc([N+](=O)[O-])cc1
inactive: [1] 100 % of control | [2] 105 % of control | [3] 95 % of control

CC1C(=O)OC2C1CCC1(C)C=C(Cl)C(=O)C3(C)OC213 (stereo unspecified)
inactive: dose: 50.0 mg/kg/injection, schedule: Q04DX002 (ip), vehicle: saline with Tween-80 100 % of control | [4] 100 % of control | [5] 100 % of control

COc1cccc2c1C(=O)c1c(O)c3c(c(O)c1C2=O)CC(O)(C1(C)OCCO1)CC3O (stereo unspecified)
inactive: dose: 3.13 mg/kg/injection, schedule: Q04DX003 (ip), vehicle: distilled water + Tween-80 99 % of control | dose: 6.25 mg/kg/injection, schedule: Q04DX003 (ip), vehicle: distilled water + Tween-80 99 % of control | dose: 12.5 mg/kg/injection, schedule: Q04DX003 (ip), vehicle: distilled water + Tween-80 99 % of control | dose: 25.0 mg/kg/injection, schedule: Q04DX003 (ip), vehicle: distilled water + Tween-80 96 % of control | dose: 50.0 mg/kg/injection, schedule: Q04DX003 (ip), vehicle: distilled water + Tween-80 98 % of control | dose: 100.0 mg/kg/injection, schedule: Q04DX003 (ip), vehicle: distilled water + Tween-80 98 % of control | dose: 200.0 mg/kg/injection, schedule: Q04DX003 (ip), vehicle: distilled water + Tween-80 106 % of control | dose: 400.0 mg/kg/injection, schedule: Q04DX003 (ip), vehicle: distilled water + Tween-80 106 % of control

CCOC(=O)N1OC2C=CC1CC2 (stereo unspecified)
inactive: [6] 97 % of control | [7] 102 % of control | [8] 100 % of control

CN1CCC(O)(C(O)(c2ccccc2)c2ccccc2)CC1
inactive: [6] 96 % of control | [7] 100 % of control | [8] 103 % of control

CC(=O)c1c(N)n(C)c(=O)n(C)c1=O
inactive: dose: 1.56 mg/kg/injection, schedule: Q01DX009 (ip), vehicle: saline with Tween-80 101 % of control | dose: 3.13 mg/kg/injection, schedule: Q01DX009 (ip), vehicle: saline with Tween-80 100 % of control | dose: 6.25 mg/kg/injection, schedule: Q01DX009 (ip), vehicle: saline with Tween-80 100 % of control and 95 % of control

CCc1cccc(CC)c1NC(=S)NC(=O)c1ccccc1
inactive: [9] 95 % of control | [10] 96 % of control | dose: 200.0 mg/kg/injection, schedule: Q01DX009 (ip), vehicle: saline with Tween-80 96 % of control

Cc1cccc(CO)c1-c1c(C)cccc1CO
inactive: [1] 101 % of control | [2] 108 % of control | [3] 100 % of control

Cn1c(CCC(=O)O)c(CC(=O)O)c2ccccc21
inactive: [4] 99 % of control | [5] 97 % of control | dose: 400.0 mg/kg/injection, schedule: Q04DX002 (ip), vehicle: saline with Tween-80 108 % of control

OC1CCN(c2c3ccccc3nc3ccccc23)CC1
inactive: dose: 12.5 mg/kg/injection, schedule: Q04DX002 (ip), vehicle: saline 105 % of control | dose: 25.0 mg/kg/injection, schedule: Q04DX002 (ip), vehicle: saline 113 % of control

c1ccc(CSCCSCc2ccccn2)nc1
inactive: [1] 95 % of control | [2] 109 % of control | [3] 103 % of control

CC(=O)N1CCc2ccccc2C1C1c2ccccc2CCN1C(C)=O (stereo unspecified)
inactive: dose: 100.0 mg/kg/injection, schedule: Q04DX003 (ip), vehicle: Klucel (hydroxypropylcellulose) (HPC) 94 % of control | dose: 200.0 mg/kg/injection, schedule: Q04DX003 (ip), vehicle: Klucel (hydroxypropylcellulose) (HPC) 94 % of control | dose: 400.0 mg/kg/injection, schedule: Q04DX003 (ip), vehicle: Klucel (hydroxypropylcellulose) (HPC) 92 % of control

COc1cc2cc(c1Cl)N(C)C(=O)CC(OC(=O)C(C)N(C)C(=O)C(C)C)C1(C)OC1C(C)C1CC(OC)(NC(=O)O1)C(OC)/C=C/C=C(C)C2OC (stereo unspecified)
inactive: dose: 16.0 mg/kg/injection, schedule: Q01DX009 (ip), vehicle: saline 98 % of control | dose: 32.0 mg/kg/injection, schedule: Q01DX009 (ip), vehicle: saline 114 % of control | dose: 64.0 mg/kg/injection, schedule: Q01DX009 (ip), vehicle: saline 100 % of control | dose: 128.0 mg/kg/injection, schedule: Q01DX009 (ip), vehicle: saline 100 % of control | dose: 4.0 micrograms/kg/injection, schedule: Q01DX009 (ip), vehicle: saline 99 % of control | dose: 8.0 micrograms/kg/injection, schedule: Q01DX009 (ip), vehicle: saline 99 % of control | dose: 16.0 micrograms/kg/injection, schedule: Q01DX009 (ip), vehicle: saline 103 % of control | dose: 32.0 micrograms/kg/injection, schedule: Q01DX009 (ip), vehicle: saline 111 % of control

O=C1c2ccccc2C(=O)N1/N=C/c1ccc(O)cc1
inactive: [1] 101 % of control | [2] 99 % of control | [3] 100 % of control

Cn1c2c(c(=O)c3cc(O)ccc31)CC(C(C)(C)O)O2 (stereo unspecified)
inactive: [1] 104 % of control | [2] 105 % of control | [3] 104 % of control

C/C=C(\C)C(=O)OC1C2C(C)=CC(O)C(O)C2(C)C2C3(O)OCC24C(CC(=O)OC14)C(C)C3O (stereo unspecified)
inactive: dose: 0.25 mg/kg/injection, schedule: Q01DX009 (ip), vehicle: Klucel (hydroxypropylcellulose) (HPC) 109 % of control | dose: 0.5 mg/kg/injection, schedule: Q01DX009 (ip), vehicle: Klucel (hydroxypropylcellulose) (HPC) 101 % of control | dose: 1.0 mg/kg/injection, schedule: Q01DX009 (ip), vehicle: Klucel (hydroxypropylcellulose) (HPC) 104 % of control | dose: 2.0 mg/kg/injection, schedule: Q01DX009 (ip), vehicle: Klucel (hydroxypropylcellulose) (HPC) 104 % of control

O=[N+]([O-])c1ccc(-c2nc(CN3CCOCC3)cs2)s1
inactive: [11] 98 % of control | [9] 103 % of control | [10] 106 % of control

CN(C)C1c2cc(Cl)ccc2-c2c(Cl)cc(Cl)cc21 (stereo unspecified)
inactive: [1] 100 % of control and 91 % of control | [2] 96 % of control | [3] 91 % of control and 92 % of control

NC1C[S][Sn][O]C1=O (stereo unspecified)
inactive: dose: 100.0 mg/kg/injection, schedule: Q04DX003 (ip), vehicle: saline with Tween-80 111 % of control | dose: 200.0 mg/kg/injection, schedule: Q04DX003 (ip), vehicle: saline with Tween-80 109 % of control

CCOC(=O)CC(COC)C(Br)(C(=O)OCC)C(=O)OCC (stereo unspecified)
inactive: dose: 1.56 mg/kg/injection, schedule: Q01DX009 (ip), vehicle: water 104 % of control | dose: 3.13 mg/kg/injection, schedule: Q01DX009 (ip), vehicle: water 111 % of control | dose: 6.25 mg/kg/injection, schedule: Q01DX009 (ip), vehicle: water 107 % of control | dose: 12.5 mg/kg/injection, schedule: Q01DX009 (ip), vehicle: water 114 % of control | dose: 25.0 mg/kg/injection, schedule: Q01DX009 (ip), vehicle: water 113 % of control

COC(=O)C(NC(N)=O)OC (stereo unspecified)
inactive: dose: 25.0 mg/kg/injection, schedule: Q01DX009 (ip), vehicle: saline 105 % of control | dose: 50.0 mg/kg/injection, schedule: Q01DX009 (ip), vehicle: saline 100 % of control | dose: 100.0 mg/kg/injection, schedule: Q01DX009 (ip), vehicle: saline 103 % of control

Oc1ccccc1C=Nc1cccnc1
inactive: dose: 12.5 mg/kg/injection, schedule: Q01DX009 (ip), vehicle: saline with Tween-80 96 % of control | [11] 101 % of control | [9] 87 % of control
